Laboratory results taken from patent publication US12011444B2, “N-substituted indole derivatives as PGE2 receptor modulators” (Idorsia Pharmaceuticals Ltd, priority 2015, dated 2024).

Experiments:
PTGER2 (EP2) = PTGER2 (EP2) (Homo sapiens (Human), UniProt P43116); assay: hEP2 b-arrestin assay (PathHunter HEK 293 PTGER2 b-arrestin cells); type: cell-based; conditions: hEP2 b-arrestin assay (values without asterisk)
Excerpt: (§1) The assay is using the PathHunter™ HEK 293 PTGER2 and PTGER4 b-arrestin cell lines from DiscoverX. The system is based on the Enzyme Fragment Complementation Technology. Two complementing fragments of the b-galactosidase enzyme are expressed within stably transfected cells. The larger portion of b-gal, termed EA for Enzyme Acceptor, is fused to the C-terminus of b-arrestin 2. The smaller fragment, termed ProLink™ tag, is fused to PTGER2 (EP2) or PTRGER4 (EP4) at the C-terminus. Upon activation, b-arrestin is recruited which forces the interaction of ProLink and EA, allowing complementation of the two fragments of b-gal and the formation of a functional enzyme which is capable of hydrolysing the substrate and generating a chemiluminescent signal.
(§2) 5000 cells per well of a 384 well plate (white with white bottom Greiner 781080) are seeded in 20 ul per well of GM. Plate is incubated at 37° C., 5% C02 for 24 hours.
Plate is pre-incubated 15 minutes at 37° C. Then five microliters of PGE2 (final conc. 5 μM) are transferred into the assay plate. Plate is incubated 120 minutes at 37° C.
(§3) Twelve μl of reagent are transferred to the assay plate and incubate for 1 hour at room temperature in the dark. Luminescence counts are read on a BMG Fluostar Optima reader according to manufacturer's instructions. For each compound concentration calculate of the percentage of activity compared to DMSO control value as average±STDEV. (each concentration is measured in duplicate)

PTRGER4 (EP4) = PTRGER4 (EP4) (Homo sapiens (Human), UniProt P35408); assay: hEP4 b-arrestin assay (PathHunter HEK 293 PTGER4 b-arrestin cells); type: cell-based; conditions: hEP4 b-arrestin assay (values without asterisk)
Chain of PTRGER4 (EP4) (P35408 whole entry, looked up): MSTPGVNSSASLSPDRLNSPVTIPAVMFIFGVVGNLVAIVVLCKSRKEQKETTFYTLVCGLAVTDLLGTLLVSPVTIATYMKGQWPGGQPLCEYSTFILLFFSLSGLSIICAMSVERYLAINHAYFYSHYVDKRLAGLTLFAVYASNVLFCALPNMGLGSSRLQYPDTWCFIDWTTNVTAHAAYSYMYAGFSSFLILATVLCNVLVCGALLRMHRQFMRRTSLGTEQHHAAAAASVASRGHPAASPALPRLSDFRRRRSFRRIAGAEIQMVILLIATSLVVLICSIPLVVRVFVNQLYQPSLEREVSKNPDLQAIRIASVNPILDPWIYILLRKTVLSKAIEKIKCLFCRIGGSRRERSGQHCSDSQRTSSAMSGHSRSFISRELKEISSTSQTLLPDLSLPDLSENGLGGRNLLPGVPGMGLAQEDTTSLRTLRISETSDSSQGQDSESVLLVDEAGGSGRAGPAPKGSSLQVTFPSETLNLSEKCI
Excerpt: as §1, §2
Plate is pre-incubated 15 minutes at 37° C. Then five microliters of PGE2 (final conc. 20 nM) are transferred into the assay plate. Plate is incubated 120 minutes at 37° C.
as §3, with “average±STDEV.” for “average±STDEV. (each concentration is measured in duplicate)”

Chain of PTGER2 (EP2) (P43116 whole entry, the tested form may be a part): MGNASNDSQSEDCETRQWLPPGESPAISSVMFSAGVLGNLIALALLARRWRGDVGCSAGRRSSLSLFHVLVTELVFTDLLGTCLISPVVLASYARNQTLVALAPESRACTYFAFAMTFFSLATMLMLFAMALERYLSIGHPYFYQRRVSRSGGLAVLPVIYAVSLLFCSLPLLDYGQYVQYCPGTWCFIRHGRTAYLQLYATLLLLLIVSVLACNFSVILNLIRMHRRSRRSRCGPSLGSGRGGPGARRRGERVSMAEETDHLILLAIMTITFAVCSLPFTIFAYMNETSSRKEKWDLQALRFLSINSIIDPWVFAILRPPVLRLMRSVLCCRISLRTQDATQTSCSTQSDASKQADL

Row | IC50 (PTGER2 (EP2)) [nM] | IC50 (PTRGER4 (EP4)) [nM] | SMILES
1 | 28 | 39 | CCOc1cc(-c2cc(NCCn3c(C)cc4c(C)c(F)cc(Cl)c43)ncn2)sc1C(=O)O [Example 837, 5-{6-[2-(7-Chloro-5-fluoro-2,4-dimethyl-indol-1-yl)-ethylamino]-pyrimidin-4-yl}-3-ethoxy-thiophene-2-carboxylic acid]
2 | 4 | 41 | COc1cc(F)cc2c1cc(C)n2CCNc1cc(-c2cc(OCC(F)(F)F)c(C(=O)O)s2)ncn1 [Example 838, 5-{6-[2-(6-Fluoro-4-methoxy-2-methyl-indol-1-yl)-ethylamino]-pyrimidin-4-yl}-3-(2,2,2-trifluoro-ethoxy)-thiophene-2-carboxylic acid]
3 | 48 | 47 | N#Cc1c(F)c2ccccc2n1CCNc1cc(-c2cc(C(F)(F)F)c(C(=O)O)s2)ncn1 [Example 840, 5-{6-[2-(2-Cyano-3-fluoro-indol-1-yl)-ethylamino]-pyrimidin-4-yl}-3-trifluoromethyl-thiophene-2-carboxylic acid]
4 | 25 | 61 | COc1ccc(F)c2c1cc(C#N)n2CCNc1cc(-c2ccc(OCC(=O)O)c(Cl)c2)ncn1 [Example 841, (2-Chloro-4-{6-[2-(2-cyano-7-fluoro-4-methoxy-indol-1-yl)-ethylamino]-pyrimidin-4-yl}-phenoxy)-acetic acid]
5 | 13 | 94 | CCOc1cc(-c2cc(NCCn3c(C)cc4c(OC)ccc(F)c43)ncn2)ccc1-c1ncco1 [Example 842, [6-(3-Ethoxy-4-oxazol-2-yl-phenyl)-pyrimidin-4-yl]-[2-(7-fluoro-4-methoxy-2-methyl-indol-1-yl)-ethyl]-amine]
6 | 5 | 142 | COc1ccc(F)c2c1cc(C)n2CCNc1cc(-c2ccc(C(=O)O)c(OCC(F)(F)F)c2)ncn1 [Example 844, 4-{6-[2-(7-Fluoro-4-methoxy-2-methyl-indol-1-yl)-ethylamino]-pyrimidin-4-yl}-2-(2,2,2-trifluoro-ethoxy)-benzoic acid]
7 | 7 | 215 | COc1cc(F)cc2c1cc(C)n2CCNc1cc(-c2ccc(C(=O)O)c(OCC(F)(F)F)c2)ncn1 [Example 845, 4-{6-[2-(6-Fluoro-4-methoxy-2-methyl-indol-1-yl)-ethylamino]-pyrimidin-4-yl}-2-(2,2,2-trifluoro-ethoxy)-benzoic acid]
8 | 24 | 221 | N#Cc1c(F)c2ccccc2n1CCNc1cc(-c2cc(F)c(C(=O)O)s2)ncn1 [Example 846, 5-{6-[2-(2-Cyano-3-fluoro-indol-1-yl)-ethylamino]-pyrimidin-4-yl}-3-fluoro-thiophene-2-carboxylic acid]
9 | 35 | 309 | CCOc1cc(-c2cc(NCCn3c(C)cc4c(OC)ccc(F)c43)ncn2)sc1CC(=O)O [Example 847, (3-Ethoxy-5-{6-[2-(7-fluoro-4-methoxy-2-methyl-indol-1-yl)-ethylamino]-pyrimidin-4-yl}-thiophen-2-yl)-acetic acid]
10 | 20 | 321 | CCOc1cc(-c2cc(NCCn3c(C)cc4c(OC)ccc(F)c43)ncn2)ccc1-c1nc(C)c(C)o1 [Example 848, {6-[4-(4,5-Dimethyl-oxazol-2-yl)-3-ethoxy-phenyl]-pyrimidin-4-yl}-[2-(7-fluoro-4-methoxy-2-methyl-indol-1-yl)-ethyl]-amine]
11 | 39 | 589 | CCOc1cc(-c2cc(NCCn3c(C)cc4c(OC)ccc(F)c43)ncn2)ccc1-c1nc2ccccc2o1 [Example 849, [6-(4-Benzooxazol-2-yl-3-ethoxy-phenyl)-pyrimidin-4-yl]-[2-(7-fluoro-4-methoxy-2-methyl-indol-1-yl)-ethyl]-amine]
12 | 2 | 79 | N#Cc1cc2c(Cl)cc(Cl)cc2n1CCNc1cc(-c2cc(F)c(C(=O)O)s2)ncn1 [Example 850, 5-{6-[2-(4,6-Dichloro-2-cyano-indol-1-yl)-ethylamino]-pyrimidin-4-yl}-3-fluoro-thiophene-2-carboxylic acid]
13 | 18 | 28 | Cc1ccc(F)c2c1cc(C#N)n2CCNc1cc(-c2cc(F)c(C(=O)O)s2)ncn1 [Example 851, 5-{6-[2-(2-Cyano-7-fluoro-4-methyl-indol-1-yl)-ethylamino]-pyrimidin-4-yl}-3-fluoro-thiophene-2-carboxylic acid]
14 | 12 | 22 | COc1ccc(F)c2c1cc(C#N)n2CCNc1cc(-c2ccc(-c3cc(O)no3)cc2)ncn1 [Example 852, 7-Fluoro-1-(2-{6-[4-(3-hydroxy-isoxazol-5-yl)-phenyl]-pyrimidin-4-ylamino}-ethyl)-4-methoxy-1H-indole-2-carbonitrile]
15 | 5 | 1 | CCOc1cc(-c2cc(NCCn3c(C#N)cc4c(OC)ccc(F)c43)ncn2)ccc1NC(=O)C(=O)O [Example 853, N-(4-{6-[2-(2-Cyano-7-fluoro-4-methoxy-indol-1-yl)-ethylamino]-pyrimidin-4-yl}-2-ethoxy-phenyl)-oxalamic acid]
16 | 232 | 193 | CCOc1cc(-c2cc(NCCn3c(C#N)cc4c(OC)ccc(F)c43)ncn2)sc1CC(=O)O [Example 854, (5-{6-[2-(2-Cyano-7-fluoro-4-methoxy-indol-1-yl)-ethylamino]-pyrimidin-4-yl}-3-ethoxy-thiophen-2-yl)-acetic acid]
17 | 6 | 3 | COc1cc(-c2cc(NCCn3c(C#N)cc4c(OC)ccc(F)c43)ncn2)ccc1-c1cc(O)no1 [Example 855, 7-Fluoro-1-(2-{6-[4-(3-hydroxy-isoxazol-5-yl)-3-methoxy-phenyl]-pyrimidin-4-ylamino}-ethyl)-4-methoxy-1H-indole-2-carbonitrile]
18 | 8 | 52 | N#Cc1cc2c(Cl)cc(Cl)cc2n1CCNc1cc(-c2cc(C(F)(F)F)c(C(=O)O)s2)ncn1 [Example 856, 5-{6-[2-(4,6-Dichloro-2-cyano-indol-1-yl)-ethylamino]-pyrimidin-4-yl}-3-trifluoromethyl-thiophene-2-carboxylic acid]
19 | 58 | 212 | Cc1c(F)c(F)cc2c1cc(C#N)n2CCNc1cc(-c2cc(C(F)(F)F)c(C(=O)O)s2)ncn1 [Example 857, 5-{6-[2-(2-Cyano-5,6-difluoro-4-methyl-indol-1-yl)-ethylamino]-pyrimidin-4-yl}-3-trifluoromethyl-thiophene-2-carboxylic acid]
20 | 22 | 4 | Cc1ccc(F)c2c1cc(C#N)n2CCNc1cc(-c2cc(C(F)(F)F)c(C(=O)O)s2)ncn1 [Example 858, 5-{6-[2-(2-Cyano-7-fluoro-4-methyl-indol-1-yl)-ethylamino]-pyrimidin-4-yl}-3-trifluoromethyl-thiophene-2-carboxylic acid]
21 | 6 | 60 | N#Cc1cc2cccc(F)c2n1CCNc1cc(-c2cc(C(F)(F)F)c(C(=O)O)s2)ncn1 [Example 859, 5-{6-[2-(2-Cyano-7-fluoro-indol-1-yl)-ethylamino]-pyrimidin-4-yl}-3-trifluoromethyl-thiophene-2-carboxylic acid]
22 | 421 | 121 | COc1ccc(F)c2c1cc(C#N)n2CCNc1cc(-c2ccc(C3(OC)COC3)s2)ncn1 [Example 860, 7-Fluoro-4-methoxy-1-(2-{6-[5-(3-methoxy-oxetan-3-yl)-thiophen-2-yl]-pyrimidin-4-ylamino}-ethyl)-1H-indole-2-carbonitrile]
23 | 5 | 2 | CCOc1cc(-c2cc(NCCn3c(C#N)cc4c(OC)ccc(F)c43)ncn2)ccc1NCC(=O)O [Example 861, (4-{6-[2-(2-Cyano-7-fluoro-4-methoxy-indol-1-yl)-ethylamino]-pyrimidin-4-yl}-2-ethoxy-phenylamino)-acetic acid]
24 | 5 | 3 | COc1ccc(F)c2c1cc(C#N)n2CCNc1cc(-c2ccc(-c3c[nH]c(C4CC4)n3)cc2)ncn1 [Example 863, 1-(2-{6-[4-(2-Cyclopropyl-1H-imidazol-4-yl)-phenyl]-pyrimidin-4-ylamino}-ethyl)-7-fluoro-4-methoxy-1H-indole-2-carbonitrile]
25 | 3 | 5 | CCOc1cc(-c2cc(NCCn3c(C)cc4c(OC)cc(Cl)c(F)c43)ncn2)sc1C(=O)O [Example 864, 5-{6-[2-(6-Chloro-7-fluoro-4-methoxy-2-methyl-indol-1-yl)-ethylamino]-pyrimidin-4-yl}-3-ethoxy-thiophene-2-carboxylic acid]
26 | 7 | 5 | CCOc1cc(-c2cc(NCCn3c(C#N)cc4c(OC)cccc43)ncn2)ccc1NCC(=O)O [Example 865, (4-{6-[2-(2-Cyano-4-methoxy-indol-1-yl)-ethylamino]-pyrimidin-4-yl}-2-ethoxy-phenylamino)-acetic acid]
